Reference: patent US20260125382A1, “COMPOUNDS FOR INHIBITING OR DEGRADING CDK2 AND/OR CDK9 AND MEDICINAL USE THEREOF” (KOREA RESEARCH INSTITUTE OF CHEMICAL TECHNOLOGY, priority 2022, published 2026)

Key:
[1] = target: T1, CDK9 (Homo sapiens, UniProt P50750); assay: CDK protein degradation activity (Western blotting), CDK9; assay type: cell-based; settings: MDA-MB-231 cells, 16 hours, Western blot
T1 construct: endogenous in cells; host or cells: MDA-MB-231
In short: (§1)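 MDA-MB-231 cells treated 16 h with compound at 100 nM, 1 μM or 10 μM, with DMSO as control. Lysates run on SDS-PAGE and immunoblotted for CDK2, CDK9 and tubulin; band levels quantified by densitometry.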

[2] = target: T2, CDK2 (Homo sapiens, UniProt P24941); assay: CDK protein degradation activity (Western blotting), CDK2; assay type: cell-based; settings: MDA-MB-231 cells, 16 hours, Western blot
T2 construct: endogenous in cells; host or cells: MDA-MB-231
In short: as §1

T1 sequence (P50750 whole entry): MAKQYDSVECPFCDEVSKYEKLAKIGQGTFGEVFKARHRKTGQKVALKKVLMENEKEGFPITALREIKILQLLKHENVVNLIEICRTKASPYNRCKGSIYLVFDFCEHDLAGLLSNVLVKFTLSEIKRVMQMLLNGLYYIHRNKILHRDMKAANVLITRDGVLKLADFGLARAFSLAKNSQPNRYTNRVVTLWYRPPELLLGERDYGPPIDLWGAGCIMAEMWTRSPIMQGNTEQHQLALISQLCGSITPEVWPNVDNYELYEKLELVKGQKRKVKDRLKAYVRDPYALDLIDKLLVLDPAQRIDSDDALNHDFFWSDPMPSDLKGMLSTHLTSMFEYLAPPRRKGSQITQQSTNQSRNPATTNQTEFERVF

Compound	Enzyme degradation CDK9 (% remaining) @ 0.1 μM [1]	Enzyme degradation CDK9 (% remaining) @ 1 μM [1]	Enzyme degradation CDK9 (% remaining) @ 10 μM [1]	Enzyme degradation CDK2 (% remaining) @ 0.1 μM [2]	Enzyme degradation CDK2 (% remaining) @ 1 μM [2]	Enzyme degradation CDK2 (% remaining) @ 10 μM [2]
O=C1CC[C@H](N2C(=O)c3cccc(NCC(=O)N4CCC(CC(=O)N5CCN(c6ccc(Nc7ncnc8c7ncn8C7CC(NC(=O)Cc8ccccc8)C7)cc6)CC5)CC4)c3C2=O)C(=O)N1 (stereo partly drawn) [Compound 211, N-((1s,3s)-3-(6-((4-(4-(2-(1-((2-(2,6-dioxopiperidin-3-yl)-1,3-dioxoisoindolin-4-yl)glycyl)piperidin-4-yl)acetyl)piperazin-1-yl)phenyl)amino)-9H-purin-9-yl)cyclobutyl)-2-phenylacetamide]	30/30/30%	30/30/30%	30/30/30%	50%	50%	40%
O=C1CCC(N2C(=O)c3ccc(N4CCC(CCN5CCN(c6ccc(Nc7ncnc8c7ncn8[C@H]7C[C@@H](NC(=O)Cc8ccccc8)C7)cc6)CC5)CC4)cc3C2=O)C(=O)N1 (stereo partly drawn) [Compound 327, N-((1s,3s)-3-(6-((4-(4-(2-(1-(2-(2,6-dioxopiperidin-3-yl)-1,3-dioxoisoindolin-5-yl)piperidin-4-yl)ethyl)piperazin-1-yl)phenyl)amino)-9H-purin-9-yl)cyclobutyl)-2-phenylacetamide]	0/0/0%	0/0/0%	0/0/0%	20%	0%	0%
O=C1CC[C@H](N2C(=O)c3ccc(N4CCC(CN5CCC(CNc6ncnc7c6ncn7[C@H]6C[C@@H](NC(=O)c7c(Cl)cccc7Cl)C6)CC5)CC4)cc3C2=O)C(=O)N1 [Compound 173, 2,6-dichloro-N-((1s,3s)-3-(6-(((1-((1-(2-(2,6-dioxopiperidin-3-yl)-1,3-dioxoisoindolin-5-yl)piperidin-4-yl)methyl)piperidin-4-yl)methyl)amino)-9H-purin-9-yl)cyclobutyl)benzamide]	50%	20%	0%	30%	30%	50%
Cc1cccc(C(=O)NC2CC(n3cnc4c(Nc5ccc(N6CCN(CCC7CCN(C(=O)C8CN(c9ccc%10c(c9)C(=O)N([C@H]9CCC(=O)NC9=O)C%10=O)C8)CC7)CC6)cc5)ncnc43)C2)n1 (stereo partly drawn) [Compound 388, N-((1s,3s)-3-(6-((4-(4-(2-(1-(1-(2-(2,6-dioxopiperidin-3-yl)-1,3-dioxoisoindolin-5-yl)azetidin-3-carbonyl)piperidin-4-yl)ethyl)piperazin-1-yl)phenyl)amino)-9H-purin-9-yl)cyclobutyl)-6-methylpicolinamide]	0/0/0%	0/0/0%	0/0/0%	40/40/40%	40/40/40%	40/40/40%
Cc1cccc(C(=O)N[C@H]2C[C@@H](n3cnc4c(NCc5cccc(OCCCN6CCN(C(=O)CNc7cccc8c7C(=O)N([C@H]7CCC(=O)NC7=O)C8=O)CC6)c5)ncnc43)C2)n1 [Compound 103, N-((1s,3s)-3-(6-((3-(3-(4-((2-(2,6-dioxopiperidin-3-yl)-1,3-dioxoisoindolin-4-yl)glycyl)piperazin-1-yl)propoxy)benzyl)amino)-9H-purin-9-yl)cyclobutyl)-6-methylpicolinamide]	30%	10%	10%	40%	40%	60%
Cc1cccc(C(=O)NC2CC(n3cnc4c(NCc5cccc(N6CCN(CC7CCN(C(=O)CNc8cccc9c8C(=O)N([C@H]8CCC(=O)NC8=O)C9=O)CC7)CC6)c5)ncnc43)C2)n1 (stereo partly drawn) [Compound 134, N-((1s,3s)-3-(6-((3-(4-((1-((2-(2,6-dioxopiperidin-3-yl)-1,3-dioxoisoindolin-4-yl)glycyl)piperidin-4-yl)methyl)piperazin-1-yl)benzyl)amino)-9H-purin-9-yl)cyclobutyl)-6-methylpicolinamide]	0/0/0%	0/0/0%	0/0/0%	60%	50%	50%
O=C1CC[C@H](N2C(=O)c3ccc(N4CCN(CC5CCN(c6ccc(Nc7ncnc8c7ncn8[C@H]7C[C@@H](NC(=O)c8c(Cl)cccc8Cl)C7)cc6)CC5)CC4)cc3C2=O)C(=O)N1 [Compound 300, 2,6-dichloro-N-((1s,3s)-3-(6-((4-(4-((4-(2-(2,6-dioxopiperidin-3-yl)-1,3-dioxoisoindolin-5-yl)piperazin-1-yl)methyl)piperidin-1-yl)phenyl)amino)-9H-purin-9-yl)cyclobutyl)benzamide]	10%	0%	0%	10/10/10%	10/10/10%	10/10/10%
O=C1CC[C@H](N2C(=O)c3ccc(NCC(=O)N4CCC5(CC(N6CCN(c7ccc(Nc8ncnc9c8ncn9[C@H]8C[C@@H](NC(=O)Cc9ccccc9)C8)cc7)CC6)C5)C4)cc3C2=O)C(=O)N1 (stereo partly drawn) [Compound 265, N-((1s,3s)-3-(6-((4-(4-(6-((2-(2,6-dioxopiperidin-3-yl)-1,3-dioxoisoindolin-5-yl)glycyl)-6-azaspiro[3.4]octan-2-yl)piperazin-1-yl)phenyl)amino)-9H-purin-9-yl)cyclobutyl)-2-phenylacetamide]	10%	0%	0%	90%	70%	70%
O=C1CC[C@H](N2C(=O)c3cccc(N4CCC5(CC4)CC(N4CCC(c6ccc(Nc7ncnc8c7ncn8C7CC(NC(=O)Cc8ccccc8)C7)cc6)CC4)C5)c3C2=O)C(=O)N1 (stereo partly drawn) [Compound 297, N-((1s,3s)-3-(6-((4-(1-(7-(2-(2,6-dioxopiperidin-3-yl)-1,3-dioxoisoindolin-4-yl)-7-azaspiro[3.5]nonan-2-yl)piperidin-4-yl)phenyl)amino)-9H-purin-9-yl)cyclobutyl)-2-phenylacetamide]	10%	0%	0%	20%	40%	40%
